Measured values published in article PMC5011342, “A high throughput drug screening assay to identify compounds that promote oligodendrocyte differentiation using acutely dissociated and purified oligodendrocyte precursor cells” (BMC Research Notes, 2016).
Where two headings read alike, the source gives them in different places.

Legend:
[1] = tested on: acutely dissociated and purified rat OPCs; experiment: Acute OL differentiation assay (MBP expression/cell, immunofluorescent image quantification); assay type: cell-based; settings: for activation at 0.4 µM: read-out: 0.4 uM (% Quet)
Summary of the method: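 This acute differentiation assay used purified rat OPCs from postnatal day 6–7 pups, seeded into PDL/laminin-coated 96-well plates in differentiation medium lacking PDGF and FGF. Compounds were applied in quadruplicate after a 1–2 h preincubation at 37 °C, 10 % CO2, with 0.1 % DMSO negative and 40 ng/ml T3 positive controls in eight wells. After fixation on DIV4, anti-MBP immunofluorescence images yielded MBP expression/cell.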

expanded OPCs = experiment: cells; settings: for viability at 0.1 µM / viability at 1 µM / viability at 10 µM: Rattus norvegicus, 72 h
Summary of the method: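 Toxicity screen: compounds added at 0.1, 1 and 10 µM to PDGF-AA-expanded OPCs in 96-well plates, 3-day incubation at 37 °C, 10% CO2, then alamarBlue 1:10 for 4 h with fluorescence readout. Results set screening doses of 10/2, 2/0.4 or 0.4/0.08 µM.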

[2] = Rattus norvegicus, 2 uM test compound, relative to quetiapine, sheet "All OLga data", read-out: OL differentiation, 2 uM (% Quet)
[3] = Rattus norvegicus, 10 uM test compound, relative to quetiapine, sheet "All OLga data", read-out: OL differentiation, 10 uM (% Quet)
[4] = read-out: 0.1 µM (% DMSO), alamarBlue viability of expanded OPCs, compound at 0.1 µM, sheet All Tox data
[5] = read-out: 1 µM (% DMSO), alamarBlue viability of expanded OPCs, compound at 1 µM, sheet All Tox data
[6] = read-out: 10 µM (% DMSO), alamarBlue viability of expanded OPCs, compound at 10 µM, sheet All Tox data
[7] = Rattus norvegicus, test compound at 0.4 uM, MBP expression relative to quetiapine, NCC library screen, sheet "All OLga data"
[8] = Rattus norvegicus, test compound at 2 uM, MBP expression relative to quetiapine, NCC library screen, sheet "All OLga data", read-out: 2 uM (% Quet)
[9] = alamarBlue viability of expanded OPCs, compound at 0.1 µM, relative to DMSO control
[10] = alamarBlue viability of expanded OPCs, compound at 1 µM, relative to DMSO control
[11] = alamarBlue viability of expanded OPCs, compound at 10 µM, relative to DMSO control
[12] = Rattus norvegicus, test compound at 0.4 uM, NCC library screen, sheet "All OLga data", relative to quetiapine
[13] = read-out: 0.1 µM (% DMSO), alamarBlue viability, NCC library compound at 0.1 µM, sheet "All Tox data"
[14] = read-out: 1 µM (% DMSO), alamarBlue viability, NCC library compound at 1 µM, sheet "All Tox data"
[15] = read-out: 10 µM (% DMSO), alamarBlue viability, NCC library compound at 10 µM, sheet "All Tox data"
[16] = Rattus norvegicus, test compound at 10 uM, MBP expression relative to quetiapine, NCC library screen, sheet "All OLga data", read-out: 10 uM (% Quet)
[17] = Rattus norvegicus, test compound at 2 uM, NCC library screen, sheet "All OLga data", relative to quetiapine, read-out: 2 uM (% Quet)
[18] = Rattus norvegicus, test compound at 10 uM, NCC library screen, sheet "All OLga data", relative to quetiapine, read-out: 10 uM (% Quet)

| SMILES | activation at 2 µM [1, 2] [%] | activation at 10 µM [1, 3] [%] | 0.1 µM (% DMSO) (expanded OPCs; [9]) | 1 µM (% DMSO) (expanded OPCs; [10]) | 10 µM (% DMSO) (expanded OPCs; [11]) | viability at 0.1 µM (expanded OPCs; [13]) [%] | viability at 1 µM (expanded OPCs; [14]) [%] | viability at 10 µM (expanded OPCs; [15]) [%] | activation at 2 µM [1, 17] [%] | also measured |
| --- | --- | --- | --- | --- | --- | --- | --- | --- | --- | --- |
| O=C(O)C[C@H](O)C[C@H](O)/C=C/c1c(C2CC2)nc2ccccc2c1-c1ccc(F)cc1 [Itavastain] | – | – | – | – | – | – | – | – | – | 0.4 uM (% Quet) ([1]; test compound at 0.4 uM, NCC library screen, sheet "All OLga data", relative to quetiapine): -60.9 % Quet; 2 uM (% Quet) ([1]; test compound at 2 uM, NCC library screen, sheet "All OLga data", relative to quetiapine): -74.4 % Quet; 0.1 µM (% DMSO) (expanded OPCs; alamarBlue viability, NCC library compound at 0.1 µM, sheet "All Tox data"): 114.3 % DMSO; 1 µM (% DMSO) (expanded OPCs; alamarBlue viability, NCC library compound at 1 µM, sheet "All Tox data"): 70.7 % DMSO; 10 µM (% DMSO) (expanded OPCs; alamarBlue viability, NCC library compound at 10 µM, sheet "All Tox data"): 19.8 % DMSO |
| NC1CCN(c2nc3c(cc2F)c(=O)c(C(=O)O)cn3-c2ccc(F)cc2F)C1 (centres unmarked) [Tosufloxacin] | -17.9 | -6.5 | – | – | – | – | – | – | – | viability at 0.1 µM (expanded OPCs; [4]): 95.4%; viability at 1 µM (expanded OPCs; [5]): 104%; viability at 10 µM (expanded OPCs; [6]): 92.2% |
| COc1cc2nc(N3CCN(C(=O)C4COc5ccccc5O4)CC3)nc(N)c2cc1OC (centres unmarked) [Doxazosin] | – | – | 140.5 | 157.6 | 18.9 | – | – | – | – | activation at 0.4 µM [1, 7]: 2%; activation at 2 µM [1, 8]: -27.2% |
| COc1ccccc1OCC(O)CN1CCN(CC(=O)Nc2c(C)cccc2C)CC1 (centres unmarked) [Ranolazine] | 11.6 | -35.3 | – | – | – | – | – | – | – | viability at 0.1 µM (expanded OPCs; [4]): 99.2%; viability at 1 µM (expanded OPCs; [5]): 92.2%; viability at 10 µM (expanded OPCs; [6]): 95.9% |
| COC(=O)C1=C(C)NC(C)=C(C(=O)OCCN(C)Cc2ccccc2)C1c1cccc([N+](=O)[O-])c1 (centres unmarked) [Nicardipine] | – | – | – | – | – | 85.3 | 51.8 | 14.3 | – | activation at 0.08 µM ([1]; Rattus norvegicus, test compound at 0.08 uM, NCC library screen, sheet "All OLga data", relative to quetiapine, read-out: 0.08 uM (% Quet)): 8.8%; activation at 0.4 µM [1, 12]: -29% |
| NC(=O)C[S+]([O-])C(c1ccccc1)c1ccccc1 (centres unmarked) [Modafinil] | 15.5 | -30.2 | – | – | – | – | – | – | – | viability at 0.1 µM (expanded OPCs; [4]): 105%; viability at 1 µM (expanded OPCs; [5]): 94.6%; viability at 10 µM (expanded OPCs; [6]): 99.6% |
| CCOC(=O)[C@H](CCc1ccccc1)N[C@@H](C)C(=O)N1[C@H](C(=O)O)C[C@@H]2CCC[C@@H]21 [Ramipril] | -3.3 | -14.5 | – | – | – | – | – | – | – | activation at 2 µM [1, 8]: 2.5%; activation at 10 µM [1, 16]: -1.1%; viability at 0.1 µM (expanded OPCs; [4]): 90.8%; viability at 1 µM (expanded OPCs; [5]): 98.4%; viability at 10 µM (expanded OPCs; [6]): 100%; 0.1 µM (% DMSO) (expanded OPCs; rat, 3 days, 0.1 µM): 92.1 % DMSO; 1 µM (% DMSO) (expanded OPCs; rat, 3 days, 1 µM): 96.0 % DMSO; 10 µM (% DMSO) (expanded OPCs; rat, 3 days, 10 µM): 96.0 % DMSO |
| CN1CCC(=C2c3ccccc3CC(=O)c3sccc32)CC1 [Ketotifen] | – | – | – | – | – | 85.1 | 72.7 | 36.9 | 0.04 | activation at 0.4 µM [1, 12]: -11.2% |
| CC(=O)Oc1ccccc1C(=O)Nc1ncc([N+](=O)[O-])s1 [Nitazoxanide] | -75.9 | – | – | – | – | 91 | 96.5 | 55.7 | – | – |
| CCCCNC(=O)NS(=O)(=O)c1ccc(C)cc1 [Tolbutamide] | – | – | – | – | – | 105 | 107 | 117 | -1.3 | activation at 10 µM [1, 18]: 20.2% |
| CCC(COC(=O)c1cc(OC)c(OC)c(OC)c1)(c1ccccc1)N(C)C (centres unmarked) [Trimebutine] | 31.4 | -25.8 | – | – | – | – | – | – | – | viability at 0.1 µM (expanded OPCs; [4]): 113%; viability at 1 µM (expanded OPCs; [5]): 135%; viability at 10 µM (expanded OPCs; [6]): 147% |
| C[C@](N)(Cc1ccc(O)c(O)c1)C(=O)O [Methyldopa] | – | – | 100.4 | 86.9 | 63.4 | – | – | – | -37.7 | activation at 10 µM [1, 18]: -93.8% |
| C[C@H]1[C@H](OC(=O)CCC(=O)O)O[C@@H]2O[C@@]3(C)CC[C@H]4[C@H](C)CC[C@@H]1[C@@]24OO3 [Artesunate] | -39.6 | -122 | – | – | – | – | – | – | – | viability at 0.1 µM (expanded OPCs; [4]): 93.2%; viability at 1 µM (expanded OPCs; [5]): 101%; viability at 10 µM (expanded OPCs; [6]): 74% |
| O=C1C(CC[S+]([O-])c2ccccc2)C(=O)N(c2ccccc2)N1c1ccccc1 (centres unmarked) [Sulfinpyrazone] | – | – | – | – | – | 88.8 | 92.9 | 88.2 | -3.8 | activation at 10 µM [1, 18]: -6.8% |
| Cc1nc2ccc(CN(C)c3ccc(C(=O)N[C@@H](CCC(=O)O)C(=O)O)s3)cc2c(=O)[nH]1 [Raltitrexed] | – | – | – | – | – | 71.4 | 63.5 | 59.6 | -13.8 | activation at 10 µM [1, 18]: -1.3% |
| CN1[C@@H](CC(=O)c2ccccc2)CCC[C@H]1C[C@H](O)c1ccccc1 [Lobeline] | -5 | 0.65 | – | – | – | 96.9 | 89.9 | 64.3 | – | – |
| Cc1cccc(CN2CCN(C(c3ccccc3)c3ccc(Cl)cc3)CC2)c1 (centres unmarked) [Meclizine] | – | – | 143.0 | 107.8 | 9.1 | – | – | – | – | activation at 0.4 µM [1, 7]: 96.7% |
| CC(C)(C)NCC(O)COc1cccc2c1CC(O)C(O)C2 (centres unmarked) [Nadolol] | – | – | 102.3 | 95.3 | 94.0 | – | – | – | -14.4 | activation at 10 µM [1, 18]: -35% |
| CC[C@H](C)C(=O)O[C@H]1C[C@H](O)C=C2C=C[C@H](C)[C@H](CC[C@@H](O)C[C@@H](O)CC(=O)O)[C@H]21 [Pravastatin] | 8.6 | -87.5 | – | – | – | – | – | – | – | viability at 0.1 µM (expanded OPCs; [4]): 113%; viability at 1 µM (expanded OPCs; [5]): 124%; viability at 10 µM (expanded OPCs; [6]): 151% |
| COC1=CC(=O)C[C@@H](C)[C@]12Oc1c(Cl)c(OC)cc(OC)c1C2=O [Griseofulvin] | – | – | 95.9 | 93.1 | 66.2 | – | – | – | – | activation at 2 µM [1, 8]: -7.2%; activation at 10 µM [1, 16]: -53.4% |
| CN1C(=O)CN=C(c2ccccc2)c2cc(Cl)ccc21 [Diazepam] | – | – | – | – | – | – | – | – | – | activation at 2 µM ([1]; Rattus norvegicus, read-out: 2 uM (% Quet)): 3.8%; activation at 10 µM ([1]; Rattus norvegicus, read-out: 10 uM (% Quet)): -14.1%; viability at 0.1 µM (expanded OPCs; read-out: 0.1 µM (% DMSO)): 92.5%; viability at 1 µM (expanded OPCs; read-out: 1 µM (% DMSO)): 97.2%; viability at 10 µM (expanded OPCs; read-out: 10 µM (% DMSO)): 102% |
| COc1ccc(C(=O)NCc2ccc(OCCN(C)C)cc2)cc1OC [Itopride] | -2.3 | 2 | – | – | – | 112 | 97.5 | 87.1 | – | – |
| CN1CCN(C(=O)O[C@H]2c3nccnc3C(=O)N2c2ccc(Cl)cn2)CC1 [Eszopiclone] | – | – | 103.0 | 99.5 | 106.9 | – | – | – | – | activation at 2 µM [1, 8]: -2.9%; activation at 10 µM [1, 16]: -10.2% |
| C/C(=C\C(=O)OCCCCCCCCC(=O)O)C[C@@H]1OC[C@H](C[C@@H]2O[C@H]2[C@@H](C)[C@H](C)O)[C@@H](O)[C@H]1O [Mupirocin] | – | – | 103.2 | 108.1 | 104.3 | – | – | – | – | activation at 2 µM [1, 8]: -2.9%; activation at 10 µM [1, 16]: 0.04% |
| CCN(CC)CCOC(=O)C1(C2CCCCC2)CCCCC1 [Dicyclomine] | – | – | 99.8 | 87.7 | 52.8 | – | – | – | 32.1 | activation at 0.4 µM [1, 12]: -5.5% |
| O=C1NC(=O)C(c2ccccc2)(c2ccccc2)N1 [Phenytoin] | – | – | 88.8 | 86.9 | 83.9 | – | – | – | – | activation at 2 µM [1, 8]: -25.2%; activation at 10 µM [1, 16]: -26.2% |
| C#C[C@]1(O)CC[C@H]2[C@@H]3[C@H](C)CC4=C(CCC(=O)C4)[C@H]3CC[C@@]21C [Tibolone] | – | – | – | – | – | 84.8 | 85.4 | 77.4 | 6.5 | activation at 10 µM [1, 18]: -6.7% |
| COc1ccc2[nH]c([S+]([O-])Cc3ncc(C)c(OC)c3C)nc2c1 (centres unmarked) [Omeprazole] | – | – | – | – | – | 84.3 | 88.4 | 85.8 | -5.2 | activation at 10 µM [1, 18]: 5.2% |
